Reference: paper PMC3031908 (Bioorganic & medicinal chemistry, 2008)

Assays:
[1] = molecular target: sodium channel site 2 binding site (neuronal voltage-gated sodium channel); conditions: −pIC50 = −log IC50 (IC50 in μM); training set; ref literature reference; cited from earlier work
human Nav1.2 = human Nav1.2 (Homo sapiens, UniProt Q99250); type: cell-based; conditions: HEK cells
[2] = test system: sodium channel site 2 binding site (neuronal voltage-gated sodium channel); assay: [3H]-BTX-B binding; parameters: species or system rat; conditions: for IC50: read-out: observed (actual) IC50, [3H]-BTX; for −pIC50 Obsd: test set, −log IC50 (IC50 in μM)

human Nav1.2, sequence (Q99250 whole entry): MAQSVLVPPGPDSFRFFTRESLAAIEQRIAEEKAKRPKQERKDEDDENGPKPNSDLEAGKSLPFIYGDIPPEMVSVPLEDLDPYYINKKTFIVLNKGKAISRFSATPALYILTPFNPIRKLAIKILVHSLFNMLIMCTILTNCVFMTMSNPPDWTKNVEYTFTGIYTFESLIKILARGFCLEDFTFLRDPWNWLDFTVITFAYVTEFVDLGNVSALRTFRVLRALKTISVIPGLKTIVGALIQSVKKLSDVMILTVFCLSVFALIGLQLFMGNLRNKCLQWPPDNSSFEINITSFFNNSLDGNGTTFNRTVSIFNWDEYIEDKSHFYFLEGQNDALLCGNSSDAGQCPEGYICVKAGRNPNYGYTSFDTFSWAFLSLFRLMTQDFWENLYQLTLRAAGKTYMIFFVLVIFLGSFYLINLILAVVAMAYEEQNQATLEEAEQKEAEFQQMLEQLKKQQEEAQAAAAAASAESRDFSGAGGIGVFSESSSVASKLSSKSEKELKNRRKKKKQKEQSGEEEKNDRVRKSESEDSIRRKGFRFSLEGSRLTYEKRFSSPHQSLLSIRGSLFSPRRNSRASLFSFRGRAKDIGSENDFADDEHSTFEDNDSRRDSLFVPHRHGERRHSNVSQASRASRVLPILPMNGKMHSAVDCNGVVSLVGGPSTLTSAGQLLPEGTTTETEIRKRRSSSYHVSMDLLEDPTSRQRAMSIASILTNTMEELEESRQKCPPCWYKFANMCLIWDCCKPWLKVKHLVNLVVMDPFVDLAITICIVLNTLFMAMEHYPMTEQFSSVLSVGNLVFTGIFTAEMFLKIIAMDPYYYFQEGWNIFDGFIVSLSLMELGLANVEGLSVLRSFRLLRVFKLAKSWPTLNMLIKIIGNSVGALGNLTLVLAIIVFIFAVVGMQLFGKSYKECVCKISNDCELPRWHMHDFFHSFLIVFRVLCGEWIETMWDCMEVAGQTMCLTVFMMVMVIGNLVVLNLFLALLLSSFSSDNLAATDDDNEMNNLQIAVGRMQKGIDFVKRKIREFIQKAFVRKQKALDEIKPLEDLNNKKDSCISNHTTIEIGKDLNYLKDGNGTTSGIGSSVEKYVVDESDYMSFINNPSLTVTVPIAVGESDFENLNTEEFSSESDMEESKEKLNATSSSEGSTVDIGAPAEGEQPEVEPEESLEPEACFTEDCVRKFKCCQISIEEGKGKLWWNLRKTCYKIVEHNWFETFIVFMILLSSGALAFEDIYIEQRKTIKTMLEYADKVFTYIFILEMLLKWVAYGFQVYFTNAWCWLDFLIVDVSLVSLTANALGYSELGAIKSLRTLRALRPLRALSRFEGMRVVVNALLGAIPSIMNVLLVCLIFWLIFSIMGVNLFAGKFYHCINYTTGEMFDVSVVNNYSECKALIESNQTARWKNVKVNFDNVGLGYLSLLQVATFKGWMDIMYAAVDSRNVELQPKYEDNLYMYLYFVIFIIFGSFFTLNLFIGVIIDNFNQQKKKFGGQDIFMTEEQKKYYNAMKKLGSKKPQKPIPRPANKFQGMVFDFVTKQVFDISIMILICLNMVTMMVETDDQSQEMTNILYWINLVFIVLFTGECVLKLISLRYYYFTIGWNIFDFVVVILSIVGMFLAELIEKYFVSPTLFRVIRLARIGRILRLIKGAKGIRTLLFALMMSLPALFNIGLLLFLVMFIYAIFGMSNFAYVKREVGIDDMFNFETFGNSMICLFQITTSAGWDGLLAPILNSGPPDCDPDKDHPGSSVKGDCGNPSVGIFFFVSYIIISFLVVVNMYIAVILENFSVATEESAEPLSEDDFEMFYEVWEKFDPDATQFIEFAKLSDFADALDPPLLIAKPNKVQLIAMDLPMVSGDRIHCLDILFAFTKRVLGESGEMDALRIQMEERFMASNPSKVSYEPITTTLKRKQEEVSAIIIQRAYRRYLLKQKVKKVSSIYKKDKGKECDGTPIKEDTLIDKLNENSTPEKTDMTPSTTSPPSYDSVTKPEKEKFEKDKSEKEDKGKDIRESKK

Structure (SMILES): CCCC1(c2ccccc2)NC(=O)NC1=O (stereo not drawn) [Compound 1]
- Final model, −pIC50 Obsd [1]: −2.21

Structure (SMILES): CCCCC1(c2ccccc2)NC(=O)NC1=O (stereo not drawn) [Compound 2]
- Final model, −pIC50 Obsd [1]: −2.01

Structure (SMILES): CCCCCC1(c2ccccc2)NC(=O)N(C)C1=O (stereo not drawn) [Compound 4]
- Final model, −pIC50 Obsd [1]: −1.59

Structure (SMILES): CCCCCCC1(c2ccccc2)NC(=O)NC1=O (stereo not drawn) [Compound 5]
- Final model, −pIC50 Obsd [1]: −1.11

Structure (SMILES): CCCCCCCC1(c2ccccc2)NC(=O)NC1=O (stereo not drawn) [Compound 6]
- Final model, −pIC50 Obsd [1]: −0.70

Structure (SMILES): CCCCCCCCC1(c2ccccc2)NC(=O)NC1=O (stereo not drawn) [Compound 7]
- Final model, −pIC50 Obsd [1]: −0.70

Structure (SMILES): CCN1C(=O)NC(=O)C1(C)c1ccccc1 (stereo not drawn) [Compound 8]
- Final model, −pIC50 Obsd [1]: −2.86

Structure (SMILES): O=C1NC(=O)C2(CCc3ccccc32)N1 (stereo not drawn) [Compound 9]
- Final model, −pIC50 Obsd [1]: −3.32

Structure (SMILES): O=C1NC(=O)C2(CCCc3ccccc32)N1 (stereo not drawn) [Compound 10]
- Final model, −pIC50 Obsd [1]: −2.93

Structure (SMILES): O=C1NC(=O)C2(CCCCc3ccccc32)N1 (stereo not drawn) [Compound 11]
- Final model, −pIC50 Obsd [1]: −2.40

Structure (SMILES): O=C1NC(=O)C2(CCCCCc3ccccc32)N1 (stereo not drawn) [Compound 12]
- Final model, −pIC50 Obsd [1]: −2.40

Structure (SMILES): CC12C(=O)NC(=O)N1CCc1ccccc12 (stereo not drawn) [Compound 13]
- Final model, −pIC50 Obsd [1]: −2.40

Structure (SMILES): CCCCC1(c2ccccc2C)NC(=O)NC1=O (stereo not drawn) [Compound 14]
- Final model, −pIC50 Obsd [1]: −2.35

Structure (SMILES): CCCCC1(c2cccc(C)c2)NC(=O)NC1=O (stereo not drawn) [Compound 15]
- Final model, −pIC50 Obsd [1]: −1.76

Structure (SMILES): CCCCC1(c2ccc(C)cc2)NC(=O)NC1=O (stereo not drawn) [Compound 16]
- Final model, −pIC50 Obsd [1]: −1.98

Structure (SMILES): O=C1NC(=O)C(c2ccccc2)(C2CCCCC2)N1 (stereo not drawn) [Compound 17]
- Final model, −pIC50 Obsd [1]: −1.76

Structure (SMILES): O=C1C(c2ccccc2)N2CCCCN1C2=O (stereo not drawn) [Compound 18]
- Final model, −pIC50 Obsd [1]: −2.85

Structure (SMILES): O=C1C(c2ccccc2)N2CCCCCN1C2=O (stereo not drawn) [Compound 19]
- Final model, −pIC50 Obsd [1]: −2.63

Structure (SMILES): CCCCCCCC(O)(C(N)=O)c1ccccc1 (stereo not drawn) [Compound 20]
- Final model, −pIC50 Obsd [1]: −0.95

Structure (SMILES): CCOC(=O)c1ccc(N)cc1 [Compound 21, benzocaine]
- Final model, −pIC50 Obsd [1]: −2.96

Structure (SMILES): COC(=O)[C@H]1[C@@H](OC(=O)c2ccccc2)C[C@@H]2CC[C@H]1N2C [Compound 24]
- Final model, −pIC50 Obsd [1]: −1.69

Structure (SMILES): CC(CNC1CCCCC1)OC(=O)c1ccccc1 (stereo not drawn) [Compound 27]
- Final model, −pIC50 Obsd [1]: −0.85

Structure (SMILES): CCOc1ccc(C(=O)OCCN(CC)CC)cc1 [Compound 29]
- Final model, −pIC50 Obsd [1]: −1.38

Structure (SMILES): CC1CCCCN1CCCOC(=O)c1ccccc1 (stereo not drawn) [Compound 30, piperocaine]
- Final model, −pIC50 Obsd [1]: −1.11

Structure (SMILES): CCCNC(C)C(=O)Nc1ccccc1C (stereo not drawn) [Compound 31]
- Final model, −pIC50 Obsd [1]: −1.73

Structure (SMILES): CCN(CC)CCOC(=O)c1ccc(N)cc1 [Compound 32]
- Final model, −pIC50 Obsd [1]: −2.04

Structure (SMILES): CCCOc1ccc(C(=O)OCCN(CC)CC)cc1N [Compound 33]
- Final model, −pIC50 Obsd [1]: −0.28

Structure (SMILES): CCCOc1cc(N)ccc1C(=O)OCCN(CC)CC.Cl [Compound 34]
- Final model, −pIC50 Obsd [1]: −1.38

Structure (SMILES): O=C1NC(=O)C(c2ccccc2)(c2ccccc2)N1 [Compound 36, phenytoin]
- Final model, −pIC50 Obsd [1]: −1.60

Structure (SMILES): CCCCCCCC(O)(C(N)=O)c1cc(C)c(NC(=O)CN(CC)CC)c(C)c1 (stereo not drawn) [Compound 37, 2-[4-(2-Diethylamino-acetylamino)-3,5-dimethylphenyl]-2-hydroxy-nonanoic acid amide]
- reversibility of block on washout (human Nav1.2): partially reversible upon washout
- increase in inhibition on heptyl for phenyl substitution at R1 ([2]; 37 vs 39 (83% vs 16%) at 40 μM): greater than 5 fold
- IC50 [2]: 6 µM
- −pIC50 Obsd [2]: -0.78

Structure (SMILES): CCN(CC)CC(=O)Nc1ccc(C2(c3ccccc3)NC(=O)NC2=O)cc1 (stereo not drawn) [Compound 41, 2-Diethylamino-N-[4-(2,5-dioxo-4-phenyl-imidazolidin-4-yl)-phenyl]-acetamide]
- IC50 [2]: ~39.8 µM
- −pIC50 Obsd [2]: -1.60

Structure (SMILES): CCN(CC)CC(=O)Nc1c(C)cc(C2(c3ccccc3)NC(=O)NC2=O)cc1C (stereo not drawn) [Compound 42, 2-Diethylamino-N-[4-(2,5-dioxo-4-phenyl-imidazolidin-4-yl)-2,6-dimethyl-phenyl]-acetamide]
- IC50 [2]: ~39.8 µM
- −pIC50 Obsd [2]: -1.60

Structure (SMILES): CCCCCCCC1(c2cc(C)c(NC(=O)CN(CC)CC)c(C)c2)NC(=O)NC1=O (stereo not drawn) [Compound 44, 2-Diethylamino-N-[4-(4-heptyl-2,5-dioxo-imidazolidin-4-yl)-2,6-dimethyl-phenyl]-acetamide]
- IC50 [2]: 13.5 µM
- −pIC50 Obsd [2]: -1.13
